Experimental data reported in article PMC10763754 (Science Advances, 2021).
“Also recorded” adds a separate entry of the source.

biological target: CDC34A-ubiquitin complex (Homo sapiens, UniProt P0CG48+P49427); assay: biochemical; format: binding; conditions: not given
Sequence (P49427 whole entry, other chains not shown): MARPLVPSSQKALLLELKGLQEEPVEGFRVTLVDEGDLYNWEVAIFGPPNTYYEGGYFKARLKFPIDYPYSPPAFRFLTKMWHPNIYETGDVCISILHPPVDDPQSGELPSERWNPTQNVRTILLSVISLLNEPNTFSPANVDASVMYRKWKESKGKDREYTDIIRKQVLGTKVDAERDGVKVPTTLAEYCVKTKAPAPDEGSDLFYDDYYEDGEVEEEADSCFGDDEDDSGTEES

Row | Compound | fold improvement in TR-FRET potency compared to hit 1 [fold] | activity in the TR-FRET assay (in words) | fold increase in TR-FRET potency relative to parent 2ab [fold] | EC50 [µM] | fold worse than CC0651 in the TR-FRET screen assay [fold]
1 | COCC(=O)N1CCC(Cc2ccc(-c3cc(Cl)cc(Cl)c3)cc2)(C(=O)NC(C)C)CC1 [2aa] | 27 | – | – | – | –
2 | CCNC(=O)C1(Cc2ccc(-c3cc(Cl)cc(Cl)c3)cc2)CCN(C(=O)COC)CC1 [2ab] | > 80 | – | – | – | –
3 | COCC(=O)N1CCC(Cc2ccc(-c3cc(Cl)cc(Cl)c3)cc2)(C(N)=O)CC1 [2ac] | – | lacked activity | – | – | –
4 | COCC(=O)N1CCC(Cc2ccc(-c3cc(Cl)cc(Cl)c3)cc2)(C(=O)NCCO)CC1 [2ai] | – | abrogated activity; also recorded: complete loss of activity | – | – | –
5 | COCC(=O)N1CCC(Cc2ccc(-c3cc(Cl)cc(Cl)c3)cc2)(C(=O)NC[C@@H](C)O)CC1 [2at] | – | abrogated activity; also recorded: complete loss of activity | – | – | –
6 | COCC(=O)N1CCC(Cc2ccc(-c3cc(Cl)cc(Cl)c3)cc2)(C(=O)NC[C@@H](O)CO)CC1 [2au] | – | abrogated activity; also recorded: complete loss of activity | – | – | –
7 | CCNC(=O)C1(Cc2ccc(-c3cc(Cl)cc(Cl)c3)cc2)CCN(C(=O)OCC(C)C)CC1 [2db] | – | – | 10 | – | –
8 | COCC(=O)N1CCC(Cc2ccc(-c3cc(Cl)cc(Cl)c3)cc2)(NC(C)=O)CC1 [3a] | – | abolished TR-FRET activity | – | – | –
9 | CCC(=O)NC1(Cc2ccc(-c3cc(Cl)cc(Cl)c3)cc2)CCN(C(=O)COC)CC1 [3b] | – | abolished TR-FRET activity | – | – | –
10 | COCC(=O)N1CCC(Cc2ccc(-c3cc(Cl)cc(Cl)c3)cc2)(c2nnc(C)o2)CC1 [4a] | – | abolished activity | – | – | –
11 | Cc1nnc(C2(Cc3ccc(-c4cc(Cl)cc(Cl)c4)cc3)CCN(C(=O)COc3ccccc3)CC2)o1 [4b] | – | abolished activity | – | – | –
12 | COCC(=O)N1CCC(Cc2ccc(-c3cccc(C)c3)cc2)(C(=O)NC(C)C)CC1 [compound 1] | – | – | – | 327 | 10
13 | COCC(=O)N1CCC(O)(c2ccc(-c3cc(Cl)cc(Cl)c3)cc2)CC1 [compound 6] | – | completely inactive | – | – | –
14 | CCCCCN1CCC(Cc2ccc(-c3cc(Cl)cc(Cl)c3)cc2)(C(=O)OCC)CC1 [compound 7] | – | complete abrogation of activity | – | – | –
15 | COCC(=O)N1CCC(Cc2ccc(-c3cc(Cl)cc(Cl)c3)cc2)(C(=O)O)CC1 [compound 12] | – | lacked activity | – | – | –

same assay, conditions: TR-FRET EC50

Row | Compound | EC50 [µM]
16 | COCC(=O)N1CCC(Cc2ccc(-c3cc(Cl)cc(Cl)c3)cc2)(C(=O)NC(C)C)CC1 [2aa] | 12
17 | CCNC(=O)C1(Cc2ccc(-c3cc(Cl)cc(Cl)c3)cc2)CCN(C(=O)COC)CC1 [2ab] | 4
18 | CNC(=O)C1(Cc2ccc(-c3cc(Cl)cc(Cl)c3)cc2)CCN(C(=O)COC)CC1 [2ad] | 20
19 | CCCNC(=O)C1(Cc2ccc(-c3cc(Cl)cc(Cl)c3)cc2)CCN(C(=O)COC)CC1 [2ae] | 4
20 | COCC(=O)N1CCC(Cc2ccc(-c3cc(Cl)cc(Cl)c3)cc2)(C(=O)NCC2CC2)CC1 [2ah] | 7
21 | CCCCCNC(=O)C1(Cc2ccc(-c3cc(Cl)cc(Cl)c3)cc2)CCN(C(=O)COC)CC1 [2ak] | 26
22 | COCC(=O)N1CCC(Cc2ccc(-c3cc(Cl)cc(Cl)c3)cc2)(C(=O)NC2CC2)CC1 [2al] | 5
23 | COCC(=O)N1CCC(Cc2ccc(-c3cc(Cl)cc(Cl)c3)cc2)(C(=O)NC(C)(C)C)CC1 [2as] | 15
24 | COCC(=O)N1CCC(Cc2ccc(-c3cc(Cl)cc(Cl)c3)cc2)(C(=O)N2CCCC2)CC1 [2aα] | 3
25 | COCC(=O)N1CCC(Cc2ccc(-c3cc(Cl)cc(Cl)c3)cc2)(C(=O)N2CCOCC2)CC1 [2aζ] | 3
26 | COCC(=O)N1CCC(Cc2ccc(-c3cc(Cl)cc(Cl)c3)cc2)(C(=O)N2CCCCC2)CC1 [2aη] | 1
27 | CCNC(=O)C1(Cc2ccc(-c3cc(Cl)cc(Cl)c3)cc2)CCN(C(=O)CCOC)CC1 [2cb] | 2
28 | CCNC(=O)C1(Cc2ccc(-c3cc(Cl)cc(Cl)c3)cc2)CCN(C(=O)OCC(C)C)CC1 [2db] | 0.4
29 | CCNC(=O)C1(Cc2ccc(-c3cc(Cl)cc(Cl)c3)cc2)CCN(C(=O)[C@H]2CCCO2)CC1 [2eb] | 17 to 23
30 | CCNC(=O)C1(Cc2ccc(-c3cc(Cl)cc(Cl)c3)cc2)CCN(C(=O)[C@@H]2CCCO2)CC1 [2fb] | 17 to 23
31 | CCNC(=O)C1(Cc2ccc(-c3cc(Cl)cc(Cl)c3)cc2)CCN(C(=O)c2ccccc2)CC1 [2gb] | 2

biological target: CDC34A (Homo sapiens, UniProt P0CG48+P49427); assay: not given; conditions: cited from earlier work
Sequence (P49427 whole entry, other chains not shown): as above

Row | Compound | potency of CC0651 in vitro
32 | COCC(=O)N[C@@H](Cc1ccc(-c2cc(Cl)cc(Cl)c2)cc1)[C@H](O)[C@@H](O)C(=O)O [CC0651] | ~ 5 μM
